Results from paper PMC3726261 (Cancer, 2012).
“Also recorded” adds a separate entry of the source. Marks after values point to notes of the source that are not given here.

Test system: patients with advanced solid malignancies
Test: Phase 1 dose-escalation study: safety, treatment-emergent adverse events
Format: in vivo
Conditions: for Abdominal distension (related TEAE) / Anemia (related TEAE) / Anorexia (related TEAE) / At least 1 related TEAE / Chest discomfort (related TEAE) / Constipation (related TEAE) / Cough (related TEAE) / Dyspepsia (related TEAE) / Dyspnea (related TEAE) / Edema (related TEAE) / Face edema (related TEAE) / Fatigue (related TEAE) / Fluid retention (related TEAE) / Increased appetite (related TEAE) / Insomnia (related TEAE) / Muscle spasms (related TEAE) / Myalgia (related TEAE) / Nausea (related TEAE) / Peripheral edema (related TEAE) / Pleural effusion (related TEAE) / Rash (related TEAE) / Vomiting (related TEAE) / Weight increase (related TEAE): N = 31 patients
[1] = Grade 3 (dose-limiting toxicity)
[2] = Patient 20, 0.75 mg twice daily, by cycle 3, day 1, CTCAE grade 4

## Cc1cc(Oc2ccc3nc(COc4ccc(CC5SC(=O)NC5=O)cc4)n(C)c3c2)cc(C)c1N (stereo not shown) [Efatutazone]
0.10-, 0.25-, and 1.15-mg cohorts, not dose dependent
  Dose-limiting toxicities: Three episodes of dose-limiting toxicities; also recorded: Three DLTs related to fluid retention
31 patients
  Patients with at least 1 treatment-related AE: 100%
31 treated patients
  Grade ≥4 edema: No patient
Grade 1
  Abdominal distension (related TEAE): 1 (3.2) No. (%)
  Anemia (related TEAE): 5 (16.1) No. (%)
  Anorexia (related TEAE): 3 (9.7) No. (%)
  At least 1 related TEAE: 13 (41.9) No. (%)
  Chest discomfort (related TEAE): 1 (3.2) No. (%)
  Constipation (related TEAE): 2 (6.5) No. (%)
  Cough (related TEAE): 3 (9.7) No. (%)
  Dyspepsia (related TEAE): 2 (6.5) No. (%)
  Dyspnea (related TEAE): 4 (12.9) No. (%)
  Edema (related TEAE): 1 (3.2) No. (%)
  Face edema (related TEAE): 2 (6.5) No. (%)
  Fatigue (related TEAE): 10 (32.3) No. (%)
  Fluid retention (related TEAE): 2 (6.5) No. (%)
  Increased appetite (related TEAE): 3 (9.7) No. (%)
  Insomnia (related TEAE): 1 (3.2) No. (%)
  Muscle spasms (related TEAE): 1 (3.2) No. (%)
  Myalgia (related TEAE): 2 (6.5) No. (%)
  Nausea (related TEAE): 5 (16.1) No. (%)
  Peripheral edema (related TEAE): 8 (25.8) No. (%)
  Pleural effusion (related TEAE): 1 (3.2) No. (%)
  Rash (related TEAE): 2 (6.5) No. (%)
  Vomiting (related TEAE): 2 (6.5) No. (%)
  Weight increase (related TEAE): 17 (54.8) No. (%)
Grade 2
  Abdominal distension (related TEAE): 1 (3.2) No. (%)
  Anemia (related TEAE): 3 (9.7) No. (%)
  Anorexia (related TEAE): 0 No. (%)
  At least 1 related TEAE: 11 (35.5) No. (%)
  Chest discomfort (related TEAE): 0 No. (%)
  Constipation (related TEAE): 0 No. (%)
  Cough (related TEAE): 1 (3.2) No. (%)
  Dyspepsia (related TEAE): 0 No. (%)
  Dyspnea (related TEAE): 0 No. (%)
  Edema (related TEAE): 0 No. (%)
  Face edema (related TEAE): 0 No. (%)
  Fatigue (related TEAE): 2 (6.5) No. (%)
  Fluid retention (related TEAE): 1 (3.2) No. (%)
  Increased appetite (related TEAE): 0 No. (%)
  Insomnia (related TEAE): 1 (3.2) No. (%)
  Muscle spasms (related TEAE): 1 (3.2) No. (%)
  Myalgia (related TEAE): 0 No. (%)
  Nausea (related TEAE): 1 (3.2) No. (%)
  Peripheral edema (related TEAE): 7 (22.6) No. (%)
  Pleural effusion (related TEAE): 1 (3.2) No. (%)
  Rash (related TEAE): 0 No. (%)
  Vomiting (related TEAE): 1 (3.2) No. (%)
  Weight increase (related TEAE): 0 No. (%)
[1]
  Edema (related TEAE): 2 (6.5) ^b No. (%)
  Pleural effusion (related TEAE): 1 (3.2) ^b No. (%)
Grade 3
  Abdominal distension (related TEAE): 0 No. (%)
  Anemia (related TEAE): 4 (12.9) No. (%)
  Anorexia (related TEAE): 0 No. (%)
  At least 1 related TEAE: 6 (19.4) No. (%)
  Chest discomfort (related TEAE): 1 (3.2) No. (%)
  Constipation (related TEAE): 0 No. (%)
  Cough (related TEAE): 0 No. (%)
  Dyspepsia (related TEAE): 0 No. (%)
  Dyspnea (related TEAE): 1 (3.2) No. (%)
  Face edema (related TEAE): 0 No. (%)
  Fatigue (related TEAE): 2 (6.5) No. (%)
  Fluid retention (related TEAE): 0 No. (%)
  Increased appetite (related TEAE): 0 No. (%)
  Insomnia (related TEAE): 0 No. (%)
  Muscle spasms (related TEAE): 0 No. (%)
  Myalgia (related TEAE): 0 No. (%)
  Nausea (related TEAE): 0 No. (%)
  Peripheral edema (related TEAE): 1 (3.2) No. (%)
  Rash (related TEAE): 0 No. (%)
  Vomiting (related TEAE): 0 No. (%)
  Weight increase (related TEAE): 0 No. (%)
Grade 4
  Abdominal distension (related TEAE): 0 No. (%)
  Anemia (related TEAE): 0 No. (%)
  Anorexia (related TEAE): 0 No. (%)
  At least 1 related TEAE: 1 (3.2) ^a No. (%)
  Chest discomfort (related TEAE): 0 No. (%)
  Constipation (related TEAE): 0 No. (%)
  Cough (related TEAE): 0 No. (%)
  Dyspepsia (related TEAE): 0 No. (%)
  Dyspnea (related TEAE): 0 No. (%)
  Edema (related TEAE): 0 No. (%)
  Face edema (related TEAE): 0 No. (%)
  Fatigue (related TEAE): 0 No. (%)
  Fluid retention (related TEAE): 0 No. (%)
  Increased appetite (related TEAE): 0 No. (%)
  Insomnia (related TEAE): 0 No. (%)
  Muscle spasms (related TEAE): 0 No. (%)
  Myalgia (related TEAE): 0 No. (%)
  Nausea (related TEAE): 0 No. (%)
  Peripheral edema (related TEAE): 0 No. (%)
  Pleural effusion (related TEAE): 0 No. (%)
  Rash (related TEAE): 0 No. (%)
  Vomiting (related TEAE): 0 No. (%)
  Weight increase (related TEAE): 0 No. (%)
Overall
  Abdominal distension (related TEAE): 2 (6.5) No. (%)
  Anemia (related TEAE): 12 (38.7) No. (%)
  Anorexia (related TEAE): 3 (9.7) No. (%)
  At least 1 related TEAE: 31 (100) No. (%)
  Chest discomfort (related TEAE): 2 (6.5) No. (%)
  Constipation (related TEAE): 2 (6.5) No. (%)
  Cough (related TEAE): 4 (12.9) No. (%)
  Dyspepsia (related TEAE): 2 (6.5) No. (%)
  Dyspnea (related TEAE): 5 (16.1) No. (%)
  Edema (related TEAE): 3 (9.7) No. (%)
  Face edema (related TEAE): 2 (6.5) No. (%)
  Fatigue (related TEAE): 14 (45.2) No. (%)
  Fluid retention (related TEAE): 3 (9.7) No. (%)
  Increased appetite (related TEAE): 3 (9.7) No. (%)
  Insomnia (related TEAE): 2 (6.5) No. (%)
  Muscle spasms (related TEAE): 2 (6.5) No. (%)
  Myalgia (related TEAE): 2 (6.5) No. (%)
  Nausea (related TEAE): 6 (19.4) No. (%)
  Peripheral edema (related TEAE): 16 (51.6) No. (%)
  Pleural effusion (related TEAE): 3 (9.7) No. (%)
  Rash (related TEAE): 2 (6.5) No. (%)
  Vomiting (related TEAE): 3 (9.7) No. (%)
  Weight increase (related TEAE): 17 (54.8) No. (%)
[2]
  Serum cholesterol, peak: 515 mg/dL
  Serum triglycerides, peak: 4525 mg/dL
All dose levels
  Cardiac dysfunction (serial electrocardiograms and echocardiograms): did not reveal any evidence of cardiac dysfunction; also recorded: no measurable cardiotoxicity
  Patients with anemia (treatment-related AE): 38.7%
  Patients with fatigue (treatment-related AE): 45.2%
  Patients with peripheral edema: 51.6%
  Patients with weight increase (treatment-related AE): 54.8%
Doses 0.10 to 1.15 mg PO twice daily
  Maximum tolerated dose (MTD): not reached
Regardless of attribution (bronchospasm; hypercholesterolemia and hypertriglyceridemia)
  Patients with grade 4 TEAEs: Two patients
